Assay results as given in article PMC2365028, “Transepithelial Transport and Metabolism of Boronated Dipeptides Across Caco-2 and HCT-8 Cell Monolayers” (Metal-Based Drugs, 1996).
Several values for one entry are separate records, joined by “and”; a condition that tells them apart may be missing. Equal entries are not always repeated. One block for each molecule: values may come before it. Where a SMILES comes first, the peptide text is derived from it.

Tests used:
Caco-2 cell monolayers = assay: Apical-to-basal transport and metabolism across Caco-2 cell monolayers (Transwell)
Excerpt: TRANSEPITHELIAL TRANSPORT AND METABOLISM OF BORONATED DIPEPTIDES ACROSS CACO-2 AND HCT-8 CELL MONOLAYERS Amy L. Elkins,John G. Eley,3, Merrill C. […] This study examined the effect of boronation on the transepithelial transport and metabolism of three glycine-phenylalanine dipeptides in Caco-2 and HCT-8 cell monolayers. […] Oral delivery of proteins and peptides as therapeutic agents is problematic due to their low bioavailability. This is mainly due to both their poor permeability across cellular barriers and to enzymatic degradation that occurs in the gut lumen, brush border, and enterocyte cytoplasm (2). […] Such as a substitution may also have the potential to alter the in vivo bioavailability of dipeptides. […] This study was undertaken to determine the effect of boronation on the transepithelial transport and metabolism of three glycine-phenylalanine dipeptides. […] Caco-2 cells are human colon adenocarcinoma cells first isolated from a primary colonic tumor (4). The cell line undergoes spontaneous enterortic differentiation in culture after reaching cotfflucnce, and morphologically resembles small intestinal epitheliun after three xveeks in culture (5). These morphological characteristics include the development of a brush border region expressing microvilli, occluding junctions, dome formations, and the formation of tight junctions leading to cell polarity. […] The cell line expresses a dipeptide carrier transport system in both the apical and basal membranes (9-10). […] HCT-8 cells are human adenocarcinoma cells from the ileocecal region; as such, these cells may give a truer reflection of gut absorption compared to Caco-2 cells which are derived from the colonic region. The cells produce a polarized differentiated monolayer consisting of enterocyte-like columnar cells that are interconnected by mature tightjunctions and desmosomes and exposed microvilla (11). The structural and functional integrity of the tight junctions of cells grown on polyester filter cups (Falcon, BD) and membrane filter inserts (Transwell(R), Costar) have been confirmed by transmission electron microscopy, transepithelial electrical resistance measurements, and transport of impermeant markers such as mannitol and polyethylene glycol (11, 12). […] Compound//was donated by Boron Biologicals, Inc., Raleigh, NC. Compound 111 was synthesized as follows: L-phenylalanine methyl ester hydrochloride (2.09 g, 9.7 mmol) and dimethylglycine (1 g, 9.7 retool) xvere suspended in 30 ml dry tetrahydrofuran with 10 mmol of triethylamine, dicyclohexyl-carbodiinfide and hydrox3'benzotriazole. The reaction was stirred at room temperature for 48 hours under nitrogen and the solvent was removed under reduced pressure. The product was purified on silica gel, two void volumes of hexane, two void volumes hexane/ethanol (8'1), and then hexane/ethanol (5:1). […] For the transport studies, cells were diluted with growth medium to give a total of […] cells/cm in 1.5 mls. The 1.5 ntis was placed in the apical compartment of a Transwcll(R) (Costar). The Transxvell(R) system is a 6-well plate with each well having an apical compartment capacity of 1.5 ntis, a basal compartment capacity of 2.5 ntis, and a 4.71 cm polycarbonate microporous (0.45 gin) membrane separating the two compartments. Cell monolayers in the Transwell(R) were allowed to grow for 21 days while the medium was replaced every 3 days. The cells were grown in Dulbecco's Modified Eagle Medium (D-MEM) containing L-glutamine and sodium pyruvate at 37C under 5% CO-. and saturated humidity. Additives to the medium included 10% heat- inactivated fetal bovine serum, 10 mM nonessential amino acids, 100 units of penicillin and […] of streptomycin per ml of medium. 278 A.L. Elkins, J.G. Eley, M.C.

in vitro = conditions: human, Caco-2
Excerpt: TRANSEPITHELIAL TRANSPORT AND METABOLISM OF BORONATED DIPEPTIDES ACROSS CACO-2 AND HCT-8 CELL MONOLAYERS Amy L. Elkins,John G. Eley,3, Merrill C. […] This study examined the effect of boronation on the transepithelial transport and metabolism of three glycine-phenylalanine dipeptides in Caco-2 and HCT-8 cell monolayers. […] Oral delivery of proteins and peptides as therapeutic agents is problematic due to their low bioavailability. This is mainly due to both their poor permeability across cellular barriers and to enzymatic degradation that occurs in the gut lumen, brush border, and enterocyte cytoplasm (2). […] Such as a substitution may also have the potential to alter the in vivo bioavailability of dipeptides. […] This study was undertaken to determine the effect of boronation on the transepithelial transport and metabolism of three glycine-phenylalanine dipeptides. […] Caco-2 cells are human colon adenocarcinoma cells first isolated from a primary colonic tumor (4). The cell line undergoes spontaneous enterortic differentiation in culture after reaching cotfflucnce, and morphologically resembles small intestinal epitheliun after three xveeks in culture (5). These morphological characteristics include the development of a brush border region expressing microvilli, occluding junctions, dome formations, and the formation of tight junctions leading to cell polarity. […]

[1] = perfusion into the jejunum, two studies; cited from earlier work
[2] = system: brush border aminopeptidases; conditions: rat brush border aminopeptidases; cited from earlier work

Apparent permeability coefficient Pe + SD (Caco-2 cell monolayers; Table 8, 4 h, 4C Static): 8 ×10⁻⁶ cm/s
Structure (SMILES): COC(=O)[C@H](Cc1ccccc1)NC(=O)CN(C)C [Compound III, N,N-dimethylglycyl-L-phenylalanine methyl ester]

mode of transport across the monolayer (Caco-2 cell monolayers; Caco-2): passive diffusion
compound recovered after transport through Caco-2 cell monolayers (Caco-2 cell monolayers; human, Caco-2, 4 h): 100%
recovery (in vitro): 100%
Structure (SMILES): CCCOC(=O)c1ccc(O)cc1 [Propyl paraben, reference compound]

Structure (SMILES): NCC(=O)N[C@@H](Cc1ccccc1)C(=O)O [glycine-phenylalanine] (H-Gly-Phe-OH)
disappearance rate [1]: 68% and 79%
substrate specificity [2]: 85%
